Reference: paper PMC9425443 (RSC Advances, 2022)
Where a name gives a salt, the structure may show the parent alone.

Assays:
[1] = target: recombinant CYP142A1 (Mycobacterium tuberculosis, UniProt P9WPL5); details: pH 7.4
[2] = tested on: CC(C)CCC[C@@H](C)[C@H]1CC[C@H]2[C@@H]3CCC4=CC(=O)CC[C@]4(C)[C@H]3CC[C@]12C; assay: purified protein, by the assay type; details: pH 7.5

Chain of recombinant CYP142A1 (P9WPL5 whole entry): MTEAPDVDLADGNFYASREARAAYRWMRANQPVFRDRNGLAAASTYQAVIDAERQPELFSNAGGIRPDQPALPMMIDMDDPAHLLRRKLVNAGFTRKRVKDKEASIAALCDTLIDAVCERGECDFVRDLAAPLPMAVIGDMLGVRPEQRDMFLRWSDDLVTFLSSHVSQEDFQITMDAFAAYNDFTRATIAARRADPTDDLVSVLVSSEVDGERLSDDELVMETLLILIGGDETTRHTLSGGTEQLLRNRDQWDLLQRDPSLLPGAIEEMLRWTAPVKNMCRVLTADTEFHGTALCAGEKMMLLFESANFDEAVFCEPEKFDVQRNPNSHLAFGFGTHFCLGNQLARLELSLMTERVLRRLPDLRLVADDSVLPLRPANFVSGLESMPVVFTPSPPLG

| Compound | Kd [1] | Km [2] | kcat [2] |
| --- | --- | --- | --- |
| CC(C)CCC[C@@H](C)[C@H]1CC[C@H]2[C@@H]3CC=C4C[C@@H](OS(=O)(=O)O)CC[C@]4(C)[C@H]3CC[C@]12C [Cholesteryl sulfate] | 27 ± 6.9 µM |  |  |
| (Mycobacterium tuberculosis H37Rv) |  | 35 ± 5.4 µM | 0.128 ± 0.00717 s⁻¹ |
| Cholesteryl propionate | 45 ± 7 µM |  |  |
